From BindingDB's records for doi:10.1016/j.bmcl.2014.05.074 (Seoul National University, 2014)

Molecular target: Transient receptor potential cation channel subfamily V member 1 (Homo sapiens, UniProt Q8NER1)
Test: Antagonist activity at human TRPV1 expressed in CHO cells assessed as inhibition of capsaicin-induced increase in intracellular Ca2+ level by FLIPR assay

Transient receptor potential cation channel subfamily V member 1, sequence (Q8NER1 whole entry): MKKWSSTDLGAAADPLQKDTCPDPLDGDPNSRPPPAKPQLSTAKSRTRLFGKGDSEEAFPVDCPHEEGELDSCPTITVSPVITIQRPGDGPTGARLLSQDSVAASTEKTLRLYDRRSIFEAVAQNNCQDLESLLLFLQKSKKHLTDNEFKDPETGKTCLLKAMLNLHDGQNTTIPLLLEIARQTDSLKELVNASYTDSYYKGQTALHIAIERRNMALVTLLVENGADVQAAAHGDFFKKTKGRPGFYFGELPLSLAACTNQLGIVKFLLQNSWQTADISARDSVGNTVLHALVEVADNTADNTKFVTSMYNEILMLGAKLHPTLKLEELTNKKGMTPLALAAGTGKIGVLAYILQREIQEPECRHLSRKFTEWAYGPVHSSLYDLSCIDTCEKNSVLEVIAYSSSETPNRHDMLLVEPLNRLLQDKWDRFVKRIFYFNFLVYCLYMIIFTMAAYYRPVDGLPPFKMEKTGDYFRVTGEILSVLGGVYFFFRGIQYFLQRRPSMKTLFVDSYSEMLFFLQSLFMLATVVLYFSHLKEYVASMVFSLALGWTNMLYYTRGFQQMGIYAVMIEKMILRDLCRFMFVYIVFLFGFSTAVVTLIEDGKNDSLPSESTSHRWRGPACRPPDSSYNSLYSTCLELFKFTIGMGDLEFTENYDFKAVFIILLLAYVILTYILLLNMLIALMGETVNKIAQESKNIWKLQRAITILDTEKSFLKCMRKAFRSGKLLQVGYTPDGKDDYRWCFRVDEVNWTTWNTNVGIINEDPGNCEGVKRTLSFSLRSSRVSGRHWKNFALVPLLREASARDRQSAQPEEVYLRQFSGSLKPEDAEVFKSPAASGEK

SMILES	Ki [nM]
CCC1CC=C(c2nc(C(F)(F)F)ccc2CNC(=O)C(C)c2ccc(NS(C)(=O)=O)c(F)c2)CC1 (stereo not drawn)	0.1
CC(C(=O)NCc1ccc(C(F)(F)F)nc1C1=C[C@H](C)CCC1)c1ccc(NS(C)(=O)=O)c(F)c1 (stereo partly drawn)	0.1
CC1CC=C(c2nc(C(F)(F)F)ccc2CNC(=O)C(C)c2ccc(NS(C)(=O)=O)c(F)c2)CC1 (stereo not drawn)	0.3
